Laboratory results as given in patent US20220168431A1, “METHODS OF TREATING CANCER USING TRIMETAZIDINE-BASED COMPOUNDS” (IMBRIA PHARMACEUTICALS, INC., priority 2019, published 2022).

How the values were obtained:
[1] = biological target: Opiate δ1 (OP1, DOP) (Homo sapiens, UniProt P41143); assay type: binding; details: 10 μM CV-8814
[2] = biological target: Serotonin (5-Hydroxytryptamine) 5-HT2A (Homo sapiens, UniProt P28223); assay type: binding; details: 10 μM CV-8814
[3] = biological target: Platelet Activating Factor (PAF) (Homo sapiens, UniProt P25105); assay type: binding; details: 10 μM CV-8814
[4] = biological target: Opiate μ (OP3, MOP) (Homo sapiens, UniProt P35372); assay type: binding; details: 10 μM CV-8814
[5] = biological target: Protein Tyrosine Kinase, Insulin Receptor (Homo sapiens, UniProt P06213); assay type: biochemical; details: 10 μM CV-8814
[6] = biological target: Histamine H2 (Homo sapiens, UniProt P25021); assay type: binding; details: 10 μM CV-8814
[7] = biological target: Cyclooxygenase COX-2 (Homo sapiens, UniProt P35354); assay type: biochemical; details: 10 μM CV-8814
[8] = biological target: Estrogen ERα (Homo sapiens, UniProt P03372); assay type: binding; details: 10 μM CV-8814
[9] = biological target: Calcium Channel N-Type (Rattus norvegicus, UniProt Q02294); assay type: binding; details: 10 μM CV-8814
[10] = biological target: Opiate κ (OP2, KOP) (Homo sapiens, UniProt P41145); assay type: binding; details: 10 μM CV-8814
[11] = biological target: Melanocortin MC1 (Homo sapiens, UniProt Q01726); assay type: binding; details: 10 μM CV-8814
[12] = biological target: Cannabinoid CB2 (Homo sapiens, UniProt P34972); assay type: binding; details: 10 μM CV-8814
[13] = biological target: Adenosine A1 (Homo sapiens, UniProt P30542); assay type: binding; details: 10 μM CV-8814
[14] = biological target: Nicotinic Acetylcholine α1, Bungarotoxin (Homo sapiens, UniProt P02708+P07510+Q07001); assay: biochemical; assay type: binding
[15] = biological target: Vasopressin V1A (Homo sapiens, UniProt P37288); assay type: binding; details: 10 μM CV-8814
[16] = biological target: Androgen (Testosterone) (Homo sapiens, UniProt P10275); assay type: binding; details: 10 μM CV-8814
[17] = biological target: Peptidase, Angiotensin Converting Enzyme (Oryctolagus cuniculus, UniProt P12822); assay type: biochemical, rabbit; details: 10 μM CV-8814
[18] = biological target: Monoamine Oxidase MAO-B (Homo sapiens, UniProt P27338); assay type: biochemical; details: 10 μM CV-8814
[19] = biological target: Transporter, Serotonin (5-Hydroxytryptamine) (SERT) (Homo sapiens, UniProt P31645); assay type: binding; details: 10 μM CV-8814
[20] = biological target: Progesterone PR-B (Homo sapiens, UniProt P06401); assay type: binding; details: 10 μM CV-8814
[21] = biological target: Monoamine Oxidase MAO-A (Homo sapiens, UniProt P21397); assay type: biochemical; details: 10 μM CV-8814
[22] = biological target: Chemokine CXCR2 (IL-8RB) (Homo sapiens, UniProt P25025); assay type: binding; details: 10 μM CV-8814
[23] = biological target: Serotonin (5-Hydroxytryptamine) 5-HT1A (Homo sapiens, UniProt P08908); assay type: binding; details: 10 μM CV-8814
[24] = biological target: Serotonin (5-Hydroxytryptamine) 5-HT2C (Homo sapiens, UniProt P28335); assay type: binding; details: 10 μM CV-8814

Measured: inhibition at 10 µM

Progesterone PR-B, sequence (P06401 whole entry): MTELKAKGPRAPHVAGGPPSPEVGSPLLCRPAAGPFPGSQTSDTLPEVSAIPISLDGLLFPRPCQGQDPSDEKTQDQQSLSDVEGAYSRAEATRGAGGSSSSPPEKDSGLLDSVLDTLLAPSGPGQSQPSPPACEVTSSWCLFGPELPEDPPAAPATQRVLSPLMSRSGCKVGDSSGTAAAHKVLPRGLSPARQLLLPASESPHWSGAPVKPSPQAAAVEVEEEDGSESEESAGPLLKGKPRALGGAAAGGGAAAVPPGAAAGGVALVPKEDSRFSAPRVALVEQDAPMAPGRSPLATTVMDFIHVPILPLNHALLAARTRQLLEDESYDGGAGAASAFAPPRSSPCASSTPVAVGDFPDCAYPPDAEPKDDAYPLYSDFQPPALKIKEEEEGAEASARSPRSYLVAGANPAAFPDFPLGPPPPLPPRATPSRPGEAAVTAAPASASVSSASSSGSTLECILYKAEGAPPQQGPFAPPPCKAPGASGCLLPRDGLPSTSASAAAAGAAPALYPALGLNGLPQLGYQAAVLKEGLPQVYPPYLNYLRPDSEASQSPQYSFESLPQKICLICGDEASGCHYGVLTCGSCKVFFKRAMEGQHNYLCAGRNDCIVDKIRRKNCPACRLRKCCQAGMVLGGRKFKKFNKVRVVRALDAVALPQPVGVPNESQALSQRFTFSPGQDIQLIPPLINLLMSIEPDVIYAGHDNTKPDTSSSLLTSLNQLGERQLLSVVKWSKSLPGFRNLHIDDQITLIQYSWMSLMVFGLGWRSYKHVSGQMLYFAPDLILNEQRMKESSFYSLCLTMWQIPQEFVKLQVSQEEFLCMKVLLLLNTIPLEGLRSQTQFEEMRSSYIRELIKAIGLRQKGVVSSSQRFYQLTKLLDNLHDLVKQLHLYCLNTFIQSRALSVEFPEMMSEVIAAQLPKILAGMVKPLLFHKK
Serotonin (5-Hydroxytryptamine) 5-HT1A, sequence (P08908 whole entry): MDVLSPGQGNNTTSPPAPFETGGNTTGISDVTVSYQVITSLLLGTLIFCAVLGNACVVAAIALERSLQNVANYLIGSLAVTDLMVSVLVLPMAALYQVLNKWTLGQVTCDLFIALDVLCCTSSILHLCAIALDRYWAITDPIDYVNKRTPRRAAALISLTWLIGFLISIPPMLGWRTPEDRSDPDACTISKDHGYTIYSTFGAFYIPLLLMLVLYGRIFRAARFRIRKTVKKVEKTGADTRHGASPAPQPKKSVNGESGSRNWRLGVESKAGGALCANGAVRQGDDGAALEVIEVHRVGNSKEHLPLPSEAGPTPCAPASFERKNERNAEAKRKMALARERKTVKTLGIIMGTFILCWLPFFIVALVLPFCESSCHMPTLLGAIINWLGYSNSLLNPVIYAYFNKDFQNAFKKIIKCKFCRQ
Nicotinic Acetylcholine α1, Bungarotoxin, sequence (P02708 21-457): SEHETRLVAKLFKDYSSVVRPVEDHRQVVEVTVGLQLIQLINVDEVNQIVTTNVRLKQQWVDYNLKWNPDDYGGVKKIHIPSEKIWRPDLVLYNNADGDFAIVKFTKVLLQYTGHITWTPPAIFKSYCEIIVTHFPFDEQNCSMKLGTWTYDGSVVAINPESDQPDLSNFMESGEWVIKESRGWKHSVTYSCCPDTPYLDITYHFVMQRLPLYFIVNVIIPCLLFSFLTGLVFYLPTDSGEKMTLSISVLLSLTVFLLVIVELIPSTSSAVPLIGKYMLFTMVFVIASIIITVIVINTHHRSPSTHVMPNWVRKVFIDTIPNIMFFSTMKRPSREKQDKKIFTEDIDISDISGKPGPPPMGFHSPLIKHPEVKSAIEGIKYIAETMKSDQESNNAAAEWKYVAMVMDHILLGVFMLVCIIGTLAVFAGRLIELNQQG
Nicotinic Acetylcholine α1, Bungarotoxin, sequence (Q07001 22-517): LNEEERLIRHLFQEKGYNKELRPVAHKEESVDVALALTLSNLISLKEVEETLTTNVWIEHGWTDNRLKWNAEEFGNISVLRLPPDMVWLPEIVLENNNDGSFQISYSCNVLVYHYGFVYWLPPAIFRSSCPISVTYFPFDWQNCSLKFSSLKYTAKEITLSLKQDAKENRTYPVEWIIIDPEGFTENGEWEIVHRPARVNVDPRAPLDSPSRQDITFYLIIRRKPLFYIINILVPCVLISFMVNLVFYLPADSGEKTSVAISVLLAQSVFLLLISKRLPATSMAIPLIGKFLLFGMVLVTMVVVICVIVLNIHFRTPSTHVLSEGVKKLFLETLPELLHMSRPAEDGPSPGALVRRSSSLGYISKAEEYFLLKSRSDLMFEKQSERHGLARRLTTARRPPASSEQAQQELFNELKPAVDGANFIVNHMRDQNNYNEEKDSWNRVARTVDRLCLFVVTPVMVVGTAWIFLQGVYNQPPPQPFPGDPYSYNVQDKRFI
Nicotinic Acetylcholine α1, Bungarotoxin, sequence (P11230 24-501, further chain): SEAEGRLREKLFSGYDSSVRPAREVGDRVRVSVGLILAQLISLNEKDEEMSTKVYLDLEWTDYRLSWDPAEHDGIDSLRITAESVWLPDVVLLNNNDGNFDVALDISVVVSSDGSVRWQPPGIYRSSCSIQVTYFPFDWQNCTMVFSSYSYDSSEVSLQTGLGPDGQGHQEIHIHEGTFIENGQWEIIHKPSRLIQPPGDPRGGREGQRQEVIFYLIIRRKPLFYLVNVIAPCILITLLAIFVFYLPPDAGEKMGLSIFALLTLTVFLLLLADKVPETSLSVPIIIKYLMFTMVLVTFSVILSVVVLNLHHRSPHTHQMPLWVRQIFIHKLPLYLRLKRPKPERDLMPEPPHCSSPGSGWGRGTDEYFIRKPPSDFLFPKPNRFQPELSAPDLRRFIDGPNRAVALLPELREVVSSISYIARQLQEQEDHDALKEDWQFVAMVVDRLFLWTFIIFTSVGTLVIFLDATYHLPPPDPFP
Nicotinic Acetylcholine α1, Bungarotoxin, sequence (P07510 23-517): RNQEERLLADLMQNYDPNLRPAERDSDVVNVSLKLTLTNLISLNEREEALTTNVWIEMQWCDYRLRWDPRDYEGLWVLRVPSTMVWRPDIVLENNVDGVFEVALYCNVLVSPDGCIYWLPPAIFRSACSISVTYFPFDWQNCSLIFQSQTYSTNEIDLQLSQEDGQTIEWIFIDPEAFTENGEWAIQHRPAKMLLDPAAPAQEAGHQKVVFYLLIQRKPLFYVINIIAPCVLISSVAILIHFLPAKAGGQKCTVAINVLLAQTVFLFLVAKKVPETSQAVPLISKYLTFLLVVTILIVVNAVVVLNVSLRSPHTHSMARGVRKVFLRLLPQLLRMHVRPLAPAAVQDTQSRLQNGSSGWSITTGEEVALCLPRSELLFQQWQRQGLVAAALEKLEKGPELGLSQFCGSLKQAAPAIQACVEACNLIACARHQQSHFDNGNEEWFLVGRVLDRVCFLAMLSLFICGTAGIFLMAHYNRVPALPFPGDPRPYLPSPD
Chemokine CXCR2 (IL-8RB), sequence (P25025 whole entry): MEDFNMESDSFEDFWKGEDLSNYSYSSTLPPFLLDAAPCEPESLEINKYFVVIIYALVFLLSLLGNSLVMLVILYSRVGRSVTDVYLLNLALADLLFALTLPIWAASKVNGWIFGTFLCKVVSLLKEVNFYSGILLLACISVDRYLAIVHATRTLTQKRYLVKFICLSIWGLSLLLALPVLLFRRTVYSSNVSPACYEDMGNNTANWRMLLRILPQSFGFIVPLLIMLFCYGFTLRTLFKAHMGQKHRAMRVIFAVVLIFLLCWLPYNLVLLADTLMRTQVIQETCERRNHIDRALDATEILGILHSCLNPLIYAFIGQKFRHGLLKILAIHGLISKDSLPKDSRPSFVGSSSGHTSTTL
Melanocortin MC1, sequence (Q01726 whole entry): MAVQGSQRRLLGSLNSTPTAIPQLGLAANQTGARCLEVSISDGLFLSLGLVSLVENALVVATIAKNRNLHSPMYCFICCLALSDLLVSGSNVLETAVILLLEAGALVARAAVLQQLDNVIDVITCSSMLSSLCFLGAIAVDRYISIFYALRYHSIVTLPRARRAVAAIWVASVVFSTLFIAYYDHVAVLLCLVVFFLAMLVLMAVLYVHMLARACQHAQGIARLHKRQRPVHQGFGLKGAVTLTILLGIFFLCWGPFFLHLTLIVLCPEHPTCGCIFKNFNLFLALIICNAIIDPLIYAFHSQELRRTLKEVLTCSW
Serotonin (5-Hydroxytryptamine) 5-HT2C, sequence (P28335 33-458): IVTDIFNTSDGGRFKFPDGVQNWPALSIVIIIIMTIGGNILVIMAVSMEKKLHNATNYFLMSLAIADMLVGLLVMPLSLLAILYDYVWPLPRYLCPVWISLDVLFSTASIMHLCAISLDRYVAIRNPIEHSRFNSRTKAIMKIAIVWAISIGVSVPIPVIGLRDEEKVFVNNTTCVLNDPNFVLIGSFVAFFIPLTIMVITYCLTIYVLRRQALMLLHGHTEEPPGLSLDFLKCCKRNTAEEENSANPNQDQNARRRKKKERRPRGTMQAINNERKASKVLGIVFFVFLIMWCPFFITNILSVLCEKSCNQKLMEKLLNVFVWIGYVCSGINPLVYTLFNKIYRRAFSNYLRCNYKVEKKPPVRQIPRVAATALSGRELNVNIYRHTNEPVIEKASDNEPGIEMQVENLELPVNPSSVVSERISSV
Vasopressin V1A, sequence (P37288 whole entry): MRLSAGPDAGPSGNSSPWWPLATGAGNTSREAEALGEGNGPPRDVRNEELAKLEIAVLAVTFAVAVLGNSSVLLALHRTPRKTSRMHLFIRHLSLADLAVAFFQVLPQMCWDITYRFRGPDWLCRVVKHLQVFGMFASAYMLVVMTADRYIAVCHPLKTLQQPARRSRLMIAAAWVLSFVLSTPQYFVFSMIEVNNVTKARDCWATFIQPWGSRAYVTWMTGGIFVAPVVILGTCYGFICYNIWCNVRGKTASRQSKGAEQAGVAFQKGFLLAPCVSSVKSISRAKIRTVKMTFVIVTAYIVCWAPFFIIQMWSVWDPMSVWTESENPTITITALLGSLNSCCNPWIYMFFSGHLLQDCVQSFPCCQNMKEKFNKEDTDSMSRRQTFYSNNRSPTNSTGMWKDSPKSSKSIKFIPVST

COc1ccc(CN2CCN(CCO)CC2)c(OC)c1OC [CV-8814, 2-(4-(2,3,4-trimethoxybenzyl)piperazin-1-yl)ethan-1-01]
< 50%: all assays above
